The text below walks through data of patent publication US9179679B2, “Synergistic herbicidal composition containing penoxsulam and flazasulfuron” (Dow AgroSciences LLC, priority 2010, dated 2015).

What all share (format): in vivo
Assay [1] has as its system pigeongrass or foxtail millet (Setaria sp., SETSS). The assay is described as follows: Postemergence field trial #1, visual weed control in vines. The conditions noted are these: 68 to 147 days after application, penoxsulam 7 and/or flazasulfuron 25 grams ai/ha. As to the method: (§1) These trials were conducted under field conditions in France. Trial sites were located in commercially grown vines of European grape (Vitis vinifera). The grapes were grown using normal cultural practices for fertilization, seeding, and maintenance to ensure good growth of the crop and the weeds. The trials were conducted using normal research methodology. Trial plots were between 2 to 4.5 meters (m) wide by 5.5 to 10 m long. All treatments were applied using a randomized complete block trial design with 3 or 4 replications per treatment. The trial sites had naturally occurring populations of weeds. The weed spectrum included, but was not limited to, black nightshade (Solanum nigrum, SOLNI), pigeongrass or foxtail millet (Setaria sp., SETSS), common lambsquarter (Chenopodium album, CHEAL), round-leaved cranesbill (Geranium rotundifolium, GERRT), common groundsel (Senecio vulgaris, SENVU), mallow (Malva L., MALSS) and common purslane (Portulaca oleracea, POROL).
(§2) Treatments consisted of tank mixes of an oil dispersion of penoxsulam and commercially available formulations of flazasulfuron (Katana herbicide, water dispersible granules) applied in water. The application volumes were between 150-325 liters per hectare (L/ha). All application were made using precision gas hand sprayers using a 2 or 3 m boom using flat fan (80° or 110°) nozzles to broadcast the treatments on the soil.
(§3) The treated plots and control plots were rated blind at various intervals after application. Ratings were based of Percent (%) Visual weed control, where 0 corresponds to no injury and 100 corresponds to complete kill.
(§4) Colby's equation was used to determine the herbicidal effects expected from the mixtures (Colby, S. R. Calculation of the synergistic and antagonistic response of herbicide combinations. Weeds 1967 15, 20-22).
(§5) The following equation was used to calculate the expected activity of mixtures containing two active ingredients, A and B: Expected=A+B−(A×B/100)
(§6) A=observed efficacy of active ingredient A at the same concentration as used in the mixture;
(§7) B=observed efficacy of active ingredient B at the same concentration as used in the mixture.

In assay [2] the test system is common lambsquarter (Chenopodium album, CHEAL). The description is as above. To be noted: 68 to 147 days after application, penoxsulam 7 and/or flazasulfuron 25 grams ai/ha. As to the method:
as §1, §2, §3, §4, §5, §6, §7

For assay [3], the system named is black nightshade (Solanum nigrum, SOLNI). The assay is described as above. The conditions noted are these: France, 68 to 147 days after application, penoxsulam 7 and/or flazasulfuron 25 grams ai/ha; for SOLNI (2) Obs - percent control observed: Field trial #1, Echallat; for SOLNI (1) Obs - percent control observed: Field trial #1, Port A Binson. As for the experimental part:
as §1, §2, §3, §4, §5, §6, §7

Assay [4] has as its system common purslane (Portulaca oleracea, POROL). Nature of the assay: Postemergence field trial #2, visual weed control in vines. The conditions noted are these: 118 to 158 days after application, penoxsulam 7 and/or flazasulfuron 25 grams ai/ha. As to the method:
as §1, §2, §3, §4, §5, §6, §7

For assay [5], the system named is common groundsel (Senecio vulgaris, SENVU). The description is as above. To be noted: 118 to 158 days after application, penoxsulam 7 and/or flazasulfuron 25 grams ai/ha. As for the experimental part: as §1, §2, §3, §4, §5, §6, §7
The subject of assay [6] is round-leaved cranesbill (Geranium rotundifolium, GERRT). Described as above. To be noted: 118 to 158 days after application, penoxsulam 7 and/or flazasulfuron 25 grams ai/ha. As for the experimental part:
as §1, §2, §3, §4, §5, §6, §7

For assay [7], the system named is mallow (Malva L., MALSS). Described as above. To be noted: 118 to 158 days after application, penoxsulam 7 and/or flazasulfuron 25 grams ai/ha. As for the experimental part: as §1, §2, §3, §4, §5, §6, §7
Assay [8] deals with common purslane (Portulaca oleracea, POROL). The assay is described as follows: Postemergence field trial #3, visual weed control in vines. To be noted: 83 to 158 days after application, penoxsulam 7 and/or flazasulfuron 25 grams ai/ha. As to the method:
as §1, §2, §3, §4, §5, §6, §7

Assay [9] concerns common groundsel (Senecio vulgaris, SENVU). The assay is described as above. The conditions noted are these: 83 to 158 days after application, penoxsulam 7 and/or flazasulfuron 25 grams ai/ha. As to the method: as §1, §2, §3, §4, §5, §6, §7
Assay [10] relates to round-leaved cranesbill (Geranium rotundifolium, GERRT). The assay is described as above. The conditions noted are these: 83 to 158 days after application, penoxsulam 7 and/or flazasulfuron 25 grams ai/ha. As for the experimental part:
as §1, §2, §3, §4, §5, §6, §7

The test system of assay [11] is black nightshade (Solanum nigrum, SOLNI). The description is as above. To be noted: 83 to 158 days after application, penoxsulam 7 and/or flazasulfuron 25 grams ai/ha. As to the method:
as §1, §2, §3, §4, §5, §6, §7

Structures are written as SMILES.

As for `COc1cc(OC)nc(NC(=O)NS(=O)(=O)c2ncccc2C(F)(F)F)n1` [Flazasulfuron, 1-(4,6-dimethoxypyrimidin-2-yl)-3-(3-trifluoromethyl-2-pyridylsulfonyl)urea], in assay [1], the “SETSS Obs - percent control observed” value came out at 73%. The “CHEAL Obs - percent control observed” value in assay [2] was determined as 63%. The “SOLNI (2) Obs - percent control observed” value in assay [3] was 58%. Further, the “SOLNI (1) Obs - percent control observed” value in assay [3] is recorded as 6%. The “POROL Obs - percent control observed” value in assay [4] and in assay [8] was 78% each time. Besides, the “SENVU Obs - percent control observed” value in [5] and in assay [9] was 30% in each case. The “GERRT Obs - percent control observed” value in assay [6] and in assay [10] was 23% in each case. Also, the “MALSS Obs - percent control observed” value in assay [7] is on record as 53%. In assay [11], the “SOLNI Obs - percent control observed” value turned out to be 1%.
Regarding `COc1cnc(OC)n2nc(NS(=O)(=O)c3c(OCC(F)F)cccc3C(F)(F)F)nc12` [Penoxsulam], in assay [1], the “SETSS Obs - percent control observed” value was 1%. Besides, the “CHEAL Obs - percent control observed” value in assay [2] is listed as 0%. In [3], the “SOLNI (2) Obs - percent control observed” value is given as 17%. Moreover, the “SOLNI (1) Obs - percent control observed” value in [3] was 1%. The “POROL Obs - percent control observed” value in assay [4] and in [8] was 0% throughout. Besides, the “SENVU Obs - percent control observed” value in [5] and in [9] was 3% each time. Moreover, the “GERRT Obs - percent control observed” value in assay [6] and in assay [10] was 13% in each case. In addition, the “MALSS Obs - percent control observed” value in assay [7] was 20%. For the same molecule, in [11], the “SOLNI Obs - percent control observed” value was 70%.
